This is an account of results in paper PMC9574867, “Discovery and Characterization of Synthesized and FDA-Approved Inhibitors of Clostridial and Bacillary Collagenases” (Journal of Medicinal Chemistry, 2022).

One data set has as its target MMP-8. Further details: method as in PMID 22529049, PMID 12217351, PMID 12217351. The conditions noted are these: known inhibitors, Figure 1a; cited from earlier work.
For a further data set, the system named is ColH. The conditions noted are these: Figure 1b, cited from earlier work.
A further data set concerns the target ColG-CU (Hathewaya histolytica, UniProt Q9X721). The experiment in a line: biochemical. The data set is classed as biochemical, C. histolyticum. The conditions noted are these: for inhibition at 100 µM: read-out: Percent inhibition of ColG-CU.
Another data set has as its system B. cereus AH187. The experiment in a line: B. cereus growth inhibition assay. It counts as cell-based. The conditions noted are these: Bacillus cereus, read-out: MIC50 (µM) AH187.
Data set [1] concerns the target T1, ColH-PD (Hathewaya histolytica, UniProt Q46085). The experiment in a line: biochemical. The conditions noted are these: for inhibition at 100 µM: read-out: Percent inhibition of ColH-PD. It counts as biochemical, C. histolyticum.
The nature of data set [2]: in vitro. The conditions noted are these: human, NHDF cells (normal human dermal fibroblasts).
Data set [3] deals with T2, ColQ1-CU (Bacillus cereus, UniProt B9J3S4). The experiment in a line: biochemical. On the set-up: species or system B. cereus strain Q1.
In data set [4] the target is T1, ColH-PD. The data set is classed as biochemical, C. histolyticum.
A short description of data set [5]: in vitro. The conditions noted are these: human, HepG2 cells (hepatocellular carcinoma).
The target of another data set is HDAC-3 (Homo sapiens, UniProt O15379). The experiment in a line: Human off-target inhibition, HDAC-3. The data set is classed as biochemical. The method, then: (§1) To assess the selectivity of the compounds over human MMPs and on other bacterial collagenases, selected compounds were tested against ColG-CU and ColH-PD from C. histolyticum and ColA-CU from B. cereus strain ATCC14579. In addition, the compounds were tested on catalytic domains of three human MMPs, which are characterized by different depths of the S1′ binding pocket (MMP-1 (shallow), −2 (intermediate), and −3 (deep)). They were also tested against other important human off-targets, which are involved in gene expression and the processing of TNF-α; these include HDAC-3, -8, TACE (ADAM-17),[33],[34] and COX-1.

Data set [6] deals with NHDF cells infected with B. cereus. The experiment in a line: NHDF infection model, cell morphology/attachment and fibrillar collagen (picrosirius red). It counts as cell-based, human.
Data set [7] deals with T3, ColA-CU (Bacillus cereus, UniProt Q81BJ6). The data set is classed as biochemical, B. cereus. The conditions noted are these: rapid dilution.
The nature of data set [8]: Stability of 27 with LC-MS in DMEM medium. It counts as physicochemical. The conditions noted are these: 200 μM in DMEM, 37 °C, 5 h, 5% CO2, LC-MS. The method, then: We also examined the hydroxamate compounds 27, 28, 29, 31, 32, and 33. […] Intrigued by the results of the hydroxamate compounds, we investigated their stability with LC-MS in the conditions of the NHDF infection model to obtain a potential explanation for the observed findings. We used 27 as a representative example for this compound class.
After the incubation, 2 μL of the compound was transferred to LC-MS vials containing 200 μL of acetonitrile and LC-MS spectra were measured. Three controls were included: (i) 27 in DMEO, (ii) 27 in DMEM without incubation, and (iii) DMEM medium.

The target of the next data set is T4, MMP-1 (Homo sapiens, UniProt P03956).
T4 construct: catalytic domains of three human MMPs; purchased Sigma-Aldrich
T4 sequence (P03956 98-276 limits assumed): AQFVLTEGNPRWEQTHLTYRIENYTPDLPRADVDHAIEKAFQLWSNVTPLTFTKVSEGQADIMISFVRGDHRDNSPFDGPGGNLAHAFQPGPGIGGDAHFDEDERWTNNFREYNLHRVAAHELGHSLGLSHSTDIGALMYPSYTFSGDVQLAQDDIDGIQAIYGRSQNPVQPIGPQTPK
The experiment in a line: MMP inhibition assay, MMP-1. The data set is classed as biochemical. The method, then: as §1
(§2) The MMP inhibition assay (Sigma-Aldrich, Saint Louise, MO) was performed as previously reported and in accordance with the manufacturer’s instructions. The fluorescence signals were measured in a CLARIOstar plate reader (BMG LABTECH, Ortenberg, Germany) at a concentration of 100 μM.

Data set [9] concerns the target T3, ColA-CU. The experiment in a line: biochemical. The data set is classed as biochemical, B. cereus strain ATCC14579. The conditions noted are these: for inhibition at 100 µM: read-out: Percent inhibition of ColA-CU.
The next data set addresses ColQ1-FL (Bacillus cereus, UniProt B9J3S4). It counts as biochemical. The conditions noted are these: 1 mg/mL Col I, 50 ng ColQ1-FL, SDS-PAGE.
Data set [10] in a line: in vitro. The conditions noted are these: human, HEK293 cells (embryonal kidney).
In another data set the target is T5, MMP-3 (Homo sapiens, UniProt P08254).
T5 construct: catalytic domains of three human MMPs; purchased Sigma-Aldrich
The experiment in a line: MMP inhibition assay, MMP-3. The data set is classed as biochemical. The method, then:
as §1, §2

Another data set deals with T6, MMP-2 (Homo sapiens, UniProt P08253).
T6 construct: catalytic domains of three human MMPs; purchased Sigma-Aldrich
The experiment in a line: MMP inhibition assay, MMP-2. The data set is classed as biochemical. As for the experimental part:
as §1, §2

Data set [11] concerns the target T2, ColQ1-CU. The data set is classed as biochemical, B. cereus. The conditions noted are these: rapid dilution.
A further data set concerns the target T7, HDAC-8 (Homo sapiens, UniProt Q9BY41).
T7 sequence (Q9BY41 1-377): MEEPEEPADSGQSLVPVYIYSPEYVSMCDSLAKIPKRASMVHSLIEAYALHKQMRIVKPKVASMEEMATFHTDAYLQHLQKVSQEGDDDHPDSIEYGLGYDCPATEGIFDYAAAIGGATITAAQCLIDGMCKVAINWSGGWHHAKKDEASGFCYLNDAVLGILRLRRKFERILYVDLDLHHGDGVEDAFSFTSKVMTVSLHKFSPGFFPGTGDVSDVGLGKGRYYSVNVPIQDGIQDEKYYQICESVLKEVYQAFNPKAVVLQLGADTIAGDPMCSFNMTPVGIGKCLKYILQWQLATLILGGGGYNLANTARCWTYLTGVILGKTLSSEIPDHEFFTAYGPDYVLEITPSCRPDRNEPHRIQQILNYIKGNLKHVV
The experiment in a line: Human off-target inhibition, HDAC-8. The data set is classed as biochemical. The method, then:
as §1

The nature of data set [12]: in vitro. The conditions noted are these: dog, MDCK II cells (Madin–Darby canine kidney II).
The next data set addresses TACE (ADAM-17) (Homo sapiens, UniProt P78536). The experiment in a line: Human off-target inhibition, TACE. It counts as biochemical. As for the experimental part: as §1
Data set [13] relates to B. cereus collagenases released in the NHDF infection model. It counts as cell-based, B. cereus AH187.
In the next data set the target is COX-1 (Homo sapiens, UniProt P23219). The experiment in a line: Human off-target inhibition, COX-1. It counts as biochemical. The method, then: as §1
In data set [14] the test system is B. cereus AH187 infection. It counts as in vivo, Galleria mellonella.
Data set [15] deals with Galleria mellonella larvae. The experiment in a line: Galleria mellonella larvae treated with compound only in PBS. It counts as in vivo. The conditions noted are these: no bacteria. As for the experimental part: Figure 8 Survival analysis of Galleria mellonella larvae treated with Bacillus cereus AH187 with and without 14 and tiludronate disodium. Each curve represents results of three independent experiments; the statistical difference between groups treated with 100, 50, and 25 μM of compound 14 and B. cereus AH187 and with the group treated only with B. cereus AH187 is p < 0.0001, p = 0.0039, and p = 0.0173, respectively. The statistical difference between groups treated with 100 μM tiludronate disodium and with B. cereus AH187 is p = 0.0032 (log-rank test). The survival rate for the larvae treated with compound 14 and tiludronate disodium in PBS was 100%.
G. mellonella larvae were purchased from a fishing store. Injections were carried out using an LA120 syringe pump (Landgraf Laborsysteme, Langenhagen, Germany) equipped with 1 mL Injekt-F tuberculin syringes (B. Braun, Melsungen, Germany) and Sterican 0.30 × […], 30 G × 1.5 needles (B. Braun). The larvae were divided into five groups depending on their treatment: (i) sterile PBS, (ii) no injection, (iii) only compound, (iv) BC AH187 bacterial suspension, and (v) BC AH187 bacterial suspension with compound. Larvae were incubated at 37 °C for 3 days and inspected twice daily. The total larvae used in all three experiments were 40 larvae per group.

Molecules are shown by their SMILES. In brackets after ≈: the same amount, converted by molar mass. Entries after “also recorded” stand apart in the source; their conditions may differ. Where two headings read alike, the source gives them in different places. Bounds are passed on as bounds.

ColG-CU, sequence (Q9X721 111-786): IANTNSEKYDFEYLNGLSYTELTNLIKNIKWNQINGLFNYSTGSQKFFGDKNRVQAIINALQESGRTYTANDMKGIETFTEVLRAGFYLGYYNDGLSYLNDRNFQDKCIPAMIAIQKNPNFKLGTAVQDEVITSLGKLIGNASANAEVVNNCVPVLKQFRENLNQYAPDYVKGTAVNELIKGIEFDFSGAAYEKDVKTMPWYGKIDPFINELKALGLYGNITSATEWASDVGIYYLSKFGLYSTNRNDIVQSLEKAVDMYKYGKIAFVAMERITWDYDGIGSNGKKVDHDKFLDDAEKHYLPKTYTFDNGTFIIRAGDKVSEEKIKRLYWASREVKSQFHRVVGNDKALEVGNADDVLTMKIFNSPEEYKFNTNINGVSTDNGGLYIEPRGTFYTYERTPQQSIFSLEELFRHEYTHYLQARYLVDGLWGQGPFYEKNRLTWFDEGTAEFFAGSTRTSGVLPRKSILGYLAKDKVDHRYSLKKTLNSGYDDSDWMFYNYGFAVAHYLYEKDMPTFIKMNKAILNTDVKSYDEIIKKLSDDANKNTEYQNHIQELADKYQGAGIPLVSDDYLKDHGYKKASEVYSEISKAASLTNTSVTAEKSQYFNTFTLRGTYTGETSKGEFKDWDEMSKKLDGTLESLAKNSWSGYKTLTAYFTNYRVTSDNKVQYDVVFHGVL
T3 sequence (Q81BJ6 93-764): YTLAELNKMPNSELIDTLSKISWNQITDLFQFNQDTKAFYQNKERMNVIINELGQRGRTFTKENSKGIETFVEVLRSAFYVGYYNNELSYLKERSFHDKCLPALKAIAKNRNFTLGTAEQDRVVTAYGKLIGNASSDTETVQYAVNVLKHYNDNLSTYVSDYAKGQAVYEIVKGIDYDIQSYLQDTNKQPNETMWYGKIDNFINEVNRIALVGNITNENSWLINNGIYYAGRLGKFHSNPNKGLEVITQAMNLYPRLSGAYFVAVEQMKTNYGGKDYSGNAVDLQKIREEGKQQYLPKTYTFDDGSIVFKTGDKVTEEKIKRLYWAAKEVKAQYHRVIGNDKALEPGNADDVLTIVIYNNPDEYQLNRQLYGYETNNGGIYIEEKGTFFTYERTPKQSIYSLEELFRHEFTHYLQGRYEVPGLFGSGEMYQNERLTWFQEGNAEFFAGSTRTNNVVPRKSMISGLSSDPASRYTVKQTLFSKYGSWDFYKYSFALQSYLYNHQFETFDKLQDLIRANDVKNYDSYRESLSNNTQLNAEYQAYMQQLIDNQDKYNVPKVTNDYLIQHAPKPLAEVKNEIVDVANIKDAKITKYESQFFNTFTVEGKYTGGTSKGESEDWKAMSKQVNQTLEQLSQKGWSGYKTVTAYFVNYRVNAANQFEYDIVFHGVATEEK
T1 sequence (Q46085 331-721 limits assumed): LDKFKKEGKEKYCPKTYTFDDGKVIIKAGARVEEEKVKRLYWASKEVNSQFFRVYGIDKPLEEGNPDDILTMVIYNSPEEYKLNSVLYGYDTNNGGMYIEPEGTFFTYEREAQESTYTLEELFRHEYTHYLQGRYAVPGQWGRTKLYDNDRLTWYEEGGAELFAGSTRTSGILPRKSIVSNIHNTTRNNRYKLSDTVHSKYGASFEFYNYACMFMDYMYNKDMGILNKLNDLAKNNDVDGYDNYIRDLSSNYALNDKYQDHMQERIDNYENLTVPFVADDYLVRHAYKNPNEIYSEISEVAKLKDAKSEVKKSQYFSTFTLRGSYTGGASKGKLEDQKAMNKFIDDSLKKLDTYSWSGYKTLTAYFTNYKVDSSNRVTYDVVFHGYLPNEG
T2 sequence (B9J3S4 94-765 limits assumed): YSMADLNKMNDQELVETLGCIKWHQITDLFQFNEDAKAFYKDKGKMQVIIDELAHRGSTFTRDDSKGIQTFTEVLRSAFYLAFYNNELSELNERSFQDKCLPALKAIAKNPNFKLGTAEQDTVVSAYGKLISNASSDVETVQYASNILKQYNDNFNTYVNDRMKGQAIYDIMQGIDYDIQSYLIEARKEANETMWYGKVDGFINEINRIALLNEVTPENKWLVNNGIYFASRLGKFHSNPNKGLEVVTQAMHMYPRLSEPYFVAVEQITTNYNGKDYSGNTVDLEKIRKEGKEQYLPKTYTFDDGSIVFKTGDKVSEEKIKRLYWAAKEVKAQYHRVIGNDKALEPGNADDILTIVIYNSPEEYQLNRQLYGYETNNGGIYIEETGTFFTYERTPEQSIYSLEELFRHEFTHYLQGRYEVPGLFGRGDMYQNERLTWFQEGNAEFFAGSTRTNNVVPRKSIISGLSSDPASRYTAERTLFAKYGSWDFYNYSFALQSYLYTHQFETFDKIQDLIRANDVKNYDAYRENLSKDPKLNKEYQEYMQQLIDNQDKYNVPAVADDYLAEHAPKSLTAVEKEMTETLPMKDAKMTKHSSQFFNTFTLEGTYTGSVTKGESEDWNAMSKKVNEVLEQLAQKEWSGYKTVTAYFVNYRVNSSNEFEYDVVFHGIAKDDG
T6 sequence (P08253 110-444 limits assumed): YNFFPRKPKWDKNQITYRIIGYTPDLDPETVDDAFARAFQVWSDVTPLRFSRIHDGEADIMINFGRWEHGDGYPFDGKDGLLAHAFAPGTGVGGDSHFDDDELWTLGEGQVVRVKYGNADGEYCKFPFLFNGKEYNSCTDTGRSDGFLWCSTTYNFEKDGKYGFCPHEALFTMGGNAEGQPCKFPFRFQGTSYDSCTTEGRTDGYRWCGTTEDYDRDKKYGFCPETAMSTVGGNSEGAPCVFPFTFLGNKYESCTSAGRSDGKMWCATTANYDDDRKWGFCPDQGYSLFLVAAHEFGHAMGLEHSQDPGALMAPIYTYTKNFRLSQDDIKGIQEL
TACE (ADAM-17), sequence (P78536 215-824): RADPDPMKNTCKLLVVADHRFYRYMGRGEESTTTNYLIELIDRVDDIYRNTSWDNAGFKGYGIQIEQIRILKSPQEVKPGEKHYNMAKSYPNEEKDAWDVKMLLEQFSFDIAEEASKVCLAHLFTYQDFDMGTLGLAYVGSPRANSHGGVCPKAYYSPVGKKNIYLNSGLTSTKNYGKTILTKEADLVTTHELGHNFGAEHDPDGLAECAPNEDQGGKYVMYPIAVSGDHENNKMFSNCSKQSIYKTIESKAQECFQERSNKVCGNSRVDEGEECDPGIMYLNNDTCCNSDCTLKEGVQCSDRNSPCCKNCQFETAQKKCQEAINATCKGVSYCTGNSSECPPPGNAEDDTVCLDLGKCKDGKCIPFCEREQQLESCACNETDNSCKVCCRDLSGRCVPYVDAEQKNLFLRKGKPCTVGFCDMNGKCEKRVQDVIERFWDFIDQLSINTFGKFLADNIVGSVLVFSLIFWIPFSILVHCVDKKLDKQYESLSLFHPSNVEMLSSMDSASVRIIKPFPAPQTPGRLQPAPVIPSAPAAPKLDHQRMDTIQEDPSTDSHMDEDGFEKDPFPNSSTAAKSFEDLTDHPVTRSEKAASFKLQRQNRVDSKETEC
T5 sequence (P08254 100-272 limits assumed): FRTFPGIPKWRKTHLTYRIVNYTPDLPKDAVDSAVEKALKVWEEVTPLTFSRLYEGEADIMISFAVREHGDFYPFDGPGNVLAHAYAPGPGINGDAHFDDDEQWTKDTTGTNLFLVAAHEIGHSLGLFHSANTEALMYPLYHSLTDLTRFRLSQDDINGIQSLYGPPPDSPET
HDAC-3, sequence (O15379 whole entry, the tested form may be a part): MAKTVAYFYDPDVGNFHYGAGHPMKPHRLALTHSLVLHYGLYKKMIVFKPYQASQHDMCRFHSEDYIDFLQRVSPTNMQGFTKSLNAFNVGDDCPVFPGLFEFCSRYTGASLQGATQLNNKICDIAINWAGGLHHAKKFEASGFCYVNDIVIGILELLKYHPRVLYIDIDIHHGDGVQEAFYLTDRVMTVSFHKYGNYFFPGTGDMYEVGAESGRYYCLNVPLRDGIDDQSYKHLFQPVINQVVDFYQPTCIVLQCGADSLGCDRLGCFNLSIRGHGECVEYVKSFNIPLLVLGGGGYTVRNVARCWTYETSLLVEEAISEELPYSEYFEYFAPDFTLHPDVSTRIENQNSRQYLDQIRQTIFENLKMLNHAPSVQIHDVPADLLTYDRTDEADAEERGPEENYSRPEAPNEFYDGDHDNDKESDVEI
HDAC-3, sequence (Q9Y618 395-489 partner limits assumed): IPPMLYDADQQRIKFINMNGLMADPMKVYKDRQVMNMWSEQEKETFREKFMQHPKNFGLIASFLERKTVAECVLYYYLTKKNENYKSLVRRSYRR
ColQ1-FL, sequence (B9J3S4 94-965 limits assumed): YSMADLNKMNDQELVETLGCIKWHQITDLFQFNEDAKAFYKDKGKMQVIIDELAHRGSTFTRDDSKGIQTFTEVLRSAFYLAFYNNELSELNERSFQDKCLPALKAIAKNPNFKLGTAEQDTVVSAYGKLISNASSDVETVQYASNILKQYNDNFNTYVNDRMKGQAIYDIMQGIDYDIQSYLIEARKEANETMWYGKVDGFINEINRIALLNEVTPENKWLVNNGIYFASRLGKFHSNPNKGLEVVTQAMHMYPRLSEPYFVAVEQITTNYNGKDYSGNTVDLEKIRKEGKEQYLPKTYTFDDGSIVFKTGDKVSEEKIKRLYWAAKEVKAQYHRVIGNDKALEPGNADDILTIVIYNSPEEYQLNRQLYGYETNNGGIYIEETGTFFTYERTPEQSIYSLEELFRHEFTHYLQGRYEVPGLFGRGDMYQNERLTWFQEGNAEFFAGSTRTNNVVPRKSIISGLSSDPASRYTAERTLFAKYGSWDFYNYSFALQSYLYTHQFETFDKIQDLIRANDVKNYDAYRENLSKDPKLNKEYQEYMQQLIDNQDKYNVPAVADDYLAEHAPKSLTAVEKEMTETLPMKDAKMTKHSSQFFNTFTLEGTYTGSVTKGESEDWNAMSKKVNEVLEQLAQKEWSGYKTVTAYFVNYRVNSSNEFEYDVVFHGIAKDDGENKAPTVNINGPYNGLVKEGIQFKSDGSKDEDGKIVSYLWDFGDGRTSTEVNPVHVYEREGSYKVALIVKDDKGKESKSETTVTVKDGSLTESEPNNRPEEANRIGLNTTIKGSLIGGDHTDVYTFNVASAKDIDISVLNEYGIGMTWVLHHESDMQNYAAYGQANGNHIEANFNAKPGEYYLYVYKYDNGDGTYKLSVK

A word on the Ki: it is a measure of affinity in units of concentration, obtained from inhibition or displacement. Consider `CC(NC(=O)C(Cc1ccccc1)NC(=O)NS(=O)(=O)c1ccc(F)cc1)C(=O)Nc1nnc(S)s1` (centres unmarked) [Compound 3], for which, at MMP-8, the Ki is 0.1 µM.
The term IC50 denotes the concentration needed to halve the response being measured. Turning to `CC(=O)c1ccc(NC(=O)CS)cc1` [Compound 4b], the IC50 in the data set with ColH (recently identified inhibitors) is 0.017 µM.
With `CC(=O)c1ccc(N2C(=O)CC(S)C2=O)cc1` (centres unmarked) [Compound 5], in the data set on ColH (100 μM), the “% of inhibition at 100 μM (ColH)” value was 96%.
A word on the inhibition: it is the percentage by which the read-out fell short of the control. The MIC50 is an inhibitory concentration at the 50% level, which refers to growth in some studies and to a panel of isolates in others. Take `CC(=O)Nc1ccccc1OCc1cn(CCNC(=O)C(CC(C)C)C(=O)NO)nn1` (centres unmarked) [Compound 27, N-[2-[4-[(2-Acetamidophenoxy)methyl]triazol-1-yl]ethyl]-2-(hydroxycarbamoyl)-4-methyl-pentanamide]: the Ki stood at 31 ± 1 µM on ColG-CU, 11.6 ± 0.4 µM at ColH-PD [1], 0.1 ± 0.02 µM on ColQ1-CU [3] and 3.4 ± 4 µM at ColA-CU [9]. Also, the inhibition at 100 µM on ColG-CU amounted to 71 ± 7%; at ColH-PD [1] it was 84 ± 2%; on ColQ1-CU [3] (read-out: % Inhibition (ColQ1-CU) Mean) it was 97 ± 2%; at ColA-CU [9], 93 ± 2%. Besides, the MIC50 in the data set on B. cereus AH187 (AH187, BHI medium, 37 °C, 48 h, 200–3 μM) was found to be 200 µM (≈ 86.5 µg/mL). Also, the IC50 was over 200 µM in “in vitro [2]”; 1.2 ± 0.1 µM at ColQ1-CU [3]; over 100 µM in the data set “in vitro [5]”; over 100 µM against HDAC-3; over 100 µM on MMP-1; over 100 µM in the data set “in vitro [10]”. For the same compound, the IC50 is over 100 µM against MMP-3; over 100 µM at MMP-2; over 100 µM on HDAC-8; over 200 µM in “in vitro [12]”; over 100 µM against TACE (ADAM-17). The “Reversibility of inhibition, ColH” value at ColH-PD [4] is recorded as “rapidly reversible inhibitors”. The “Effect on cell morphology and ECM collagen content of infected NHDF cells” value in data set [6] (B. cereus infection, 5 h) is recorded as “neither able to rescue cell morphology nor able to maintain the collagen content of the ECM”. Besides, on ColA-CU [7], the “Reversibility of inhibition, ColA-CU” value is reported as “rapidly reversible inhibitors”. The “Stability under NHDF infection assay conditions” value in data set [8] is given as “no compound degradation; also recorded: confirmed, however, the stability”. Moreover, the “Concentration above which Col I chains were maintained” value on ColQ1-FL was over 0.8 µM. For the same compound, at ColQ1-CU [11], the “Reversibility of inhibition, ColQ1-CU” value is on record as “rapidly reversible inhibitors”. Further, the “Inhibitory effect on gelatinolytic activity of secreted collagenases” value in [13] is given as “no inhibitory effect on the collagenase in the zymography at all tested concentrations; also recorded: no inhibition of the collagenase in the gelatin zymography was detected”.
With `O=P([O-])(O)C(Sc1ccc(Cl)cc1)P(=O)([O-])O.[Na+].[Na+]` [Tiludronate disodium, reference compound], the inhibition at 100 µM at ColG-CU is 28 ± 7%; on ColH-PD [1], 91 ± 2%; at ColQ1-CU [3] it was 63 ± 3%; on ColA-CU [9], 72 ± 2%. Moreover, in the data set with B. cereus AH187 (AH187, 48 h), the MIC50 worked out at 200 µM. Besides, the IC50 is over 100 µM against HDAC-3; over 100 µM against COX-1; 50 ± 10 µM against MMP-1; over 100 µM on MMP-3; over 100 µM against MMP-2; over 100 µM against HDAC-8. The IC50 at TACE (ADAM-17) was over 100 µM. Also, the “Increase in survival of infected larvae” value in [14] (100 μM) is given as 40%. For the same compound, in [14] (37 °C, 3 days), the “Survival of infected larvae vs control without inhibitor” value is recorded as “ameliorated the survival of the larvae in a dose-dependent manner”. For the same compound, in [6], the “Concentration showing dose-dependent effects on NHDF morphology, fibrillar ECM collagen content and LDH release” value is recorded as at least 100 μM. For the same compound, the “Survival rate of larvae treated with compound in PBS” value in data set [15] came to 100%. For the same compound, the “Concentration giving complete inhibition of gelatinolytic activity” value in data set [13] was found to be 100 µM.
